Measurements: patent US20220241416A1, “METHODS FOR THE IDENTIFICATION OF SARM1 NADASE ACTIVITY INHIBITORS AND USES THEREOF” (Bar Ilan University, priority 2021, published 2022)
“And” between values parts separate entries of the source, which are not always exact repeats. Equal values may be shown once.

Target: T1, hSARM1 (Homo sapiens, UniProt Q6SZW1, E642Q)
T1 construct: short of the N′ terminal mitochondria) localization signal (26ERL . .; 6xHis (N); TEV cleavage site (N); made in house; host or cells: HEK293F suspension cells
T1 sequence (Q6SZW1 with tags, fused parts or gaps E642Q): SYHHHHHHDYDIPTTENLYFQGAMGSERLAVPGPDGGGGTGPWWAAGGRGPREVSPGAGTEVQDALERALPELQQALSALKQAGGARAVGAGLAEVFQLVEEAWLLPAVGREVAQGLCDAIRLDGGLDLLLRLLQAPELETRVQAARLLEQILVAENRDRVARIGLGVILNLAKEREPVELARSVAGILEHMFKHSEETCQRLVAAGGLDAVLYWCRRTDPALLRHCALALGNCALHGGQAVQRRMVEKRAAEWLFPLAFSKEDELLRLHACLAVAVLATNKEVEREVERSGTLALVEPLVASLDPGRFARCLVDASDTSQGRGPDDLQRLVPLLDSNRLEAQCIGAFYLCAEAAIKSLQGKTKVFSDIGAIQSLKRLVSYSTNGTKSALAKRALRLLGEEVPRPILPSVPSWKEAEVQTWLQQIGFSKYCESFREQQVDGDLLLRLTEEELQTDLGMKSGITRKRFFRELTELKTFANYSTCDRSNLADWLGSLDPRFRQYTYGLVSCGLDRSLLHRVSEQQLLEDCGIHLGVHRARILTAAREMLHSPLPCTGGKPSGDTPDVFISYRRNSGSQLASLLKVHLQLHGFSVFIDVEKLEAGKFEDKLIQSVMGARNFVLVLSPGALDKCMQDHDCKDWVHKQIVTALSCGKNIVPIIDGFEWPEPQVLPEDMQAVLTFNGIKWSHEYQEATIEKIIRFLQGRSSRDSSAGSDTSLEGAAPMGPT
Assay: Cryo-EM 2D classification of hSARM1 conformation
Conditions: for effect on hSARM1 conformation: 2D classification / GraFix
Description: FIG. 7B: The structural effects of NAD+ and ATP were observed by cryo-EM based on appearance in 2D classification. Presented are the 10 most populated classes (those with the largest number of particles—numbers in green, 1st class is on the left) out of 50-100 from each data collection after the first round of particle picking and classification. By this analysis, the percentage of particles that present full, two-ring structure is 13% (no NAD+); 74% (5 mM NAD+); and 4% (10 mM ATP).
Cryo-EM grids were prepared by applying 3 μl protein samples to glow-discharged (PELCO easiGlow™ Ted Pella Inc., at 15 mA for 1 minute) holey carbon grids (Quantifoil R 1.2/1.3, Micro Tools GmbH, Germany). The grids were blotted for 4 seconds and vitrified by rapidly plunging into liquid ethane at −182° C. using Leica EM GP plunger (Leica Microsystems, Vienna, Austria). The frozen grids were stored in liquid nitrogen until the day of cryo-EM data collection.
The data presented herein was collected with three separate cryo-electron microscopes: 1) F30 Polara in Ben-Gurion University, Israel was used for all sample preparation optimization. It was also used to collect data sets without and with potential inhibitors (shown in FIG. 1C and the ATP and NMN supplemented classes in FIG. 7B). Samples were imaged under low-dose conditions on a FEI Tecnai F30 Polara microscope (FEI, Eindhoven) operating at 300 kV. Datasets were collected using SerialEM (D. N. Mastronarde, et al. Journal of structural biology 152, 36-51 (2005)) on a K2 Summit direct electron detector fitted behind an energy filter (Gatan Quantum GIF) with a calibrated pixel size of 1.1 Å. The energy filter was set to remove electrons >±10 eV from the zero-loss peak energy. The defocus range was set from −1.0 μm to −2.5 μm. The K2 summit camera was operated in counting mode at a dose rate of 8 electrons/pixel/second on the camera. Each movie was dose fractionated into 50 image frames, with total electron dose of 80ē/Å2. Dose-fractionated image stacks were aligned using MotionCorr2 (X. Li et al., Nature methods 10, 584-590 (2013)), and their defocus values estimated by Gctf (K. Zhang, et al. J Struct Biol 193, 1-12 (2016)). The sum of the aligned frames was used for further processing and the rest of the processing was done in Cryosparc V2 (A. Punjani, J. et al. Nature Methods 14, 290-+(2017)). Particles were auto-picked and subjected to local motion correction to correct for beam-induced drift and then 2D classification with 50 classes. The best (based on shape, number of particles and resolution) classes were manually selected containing 5459 (for hSARM1E642Q) and 43868 (for SAM1-2) particles. 1 initial 3D reference was prepared from all particles and 3D refinement imposing C8 symmetry resulted the final map. […]

Nc1ncnc2c1ncn2[C@@H]1O[C@H](COP(=O)(O)OP(=O)(O)OP(=O)(O)O)[C@@H](O)[C@H]1O [ATP]
percentage of particles that present full, two-ring structure (10 mM ATP, 13% without supplement): 4% | effect on hSARM1 conformation: did not affect hSARM1 conformation

NC(=O)c1ccc[n+]([C@@H]2O[C@H](COP(=O)([O-])OP(=O)(O)OC[C@H]3O[C@@H](n4cnc5c(N)ncnc54)[C@H](O)[C@@H]3O)[C@@H](O)[C@H]2O)c1 [NAD+, Nicotinamide adenine dinucleotide]
percentage of particles that present full, two-ring structure (5 mM NAD+, 13% or <20% without NAD+): > 80% and 74%

OCC(O)CO [glycerol]
effect on hSARM1 conformation: imposes hSARM1 compact conformation
